Where two headings read alike, the source gives them in different places.
Legend:
[1] = system: carrageenin-induced inflammation (hind paw oedema); assay: Carrageenin oedema test for anti-inflammatory activity; type: in vivo, Male Wistar rats; conditions: po, read-out: Anti-inflammatory activity, ID50
Method: Male Wistar rats weighing 120-150 g were fasted overnight and then received a test compound per os as an aqueous tragacanth suspension. 30 minutes later, inflammation was induced by the subcutaneous injection of 0.05 ml of a 1% w/v carrageenin suspension into the plantar tissue of a hind paw of each rat [Winter et al., Proc. Soc. […] The anti-oedema activity was measured volumetrically, by assessing the response, as calculated from the following equation: Response=(V-Vo)/Vo where Vo and V represent, respectively, the paw volume immediately before and 3 hours after the carrageenin injection.

[2] = system: pressure-induced pain threshold; assay: Pain test for analgesic activity (modified Randall and Selitto, Brewers' yeast-inflamed paw); type: in vivo, Male Wistar-Imamichi rats; conditions: read-out: Analgesic activity, ED50
Method: This test was conducted according to a modification of the method reported by L. O. Randall and J. J. Selitto in Arch. Int.
Male Wistar-Imamichi rats of 4 weeks of age and weighing 60-90 g were injected with 0.1 ml of a 20% by weight suspension of Brewers' yeast in the right hind paw. […] Each of these was given orally a test compound as an aqueous tragacanth suspension. 1 and 2 hours after administration of the test compound, the pain threshold was determined by observing pain responses (such as struggling or squeaking) when the inflamed or normal paw was subjected to pressure by a machine (Ugo-Basile).

[3] = system: IgM antibody-producing cells in the spleen; assay: Test for immuno-regulatory activity (Cunningham's method, IgM antibody production to sheep erythrocytes); type: in vivo, female mice of the BALB/c strain; conditions: mouse, oral, dose from 1 to 10 mg per kg, spleen after 5 days
Method: The immuno-regulatory activity of (±)-2-[4-(cis-2-hydroxycyclohexylmethyl)phenyl]propionic acid was tested by Cunningham's method [A. J. Cunningham and A. Szenberg, Immunology 14, 599 (1968)]. The test compound was administered orally to female mice of the BALB/c strain and simultaneously sheep erythrocytes were administered intraperitonially, in order to sensitise the animal to these erythrocytes as an antigen. After 5 days, the spleen of the experimental animal was extracted and the number of IgM antibody-producingcells in the spleen cells was calculated.

[4] = rat, per os, paw volume 3 hours after carrageenin, dose inhibiting the response by 50%
[5] = rat, oral, pain threshold 1 and 2 hours after administration, Litchfield and Wilcoxon

Row | Compound | ED50 [1, 4] | ED50 [2, 5] | ED50 ([1]; Rattus norvegicus, 3 h) | ED50 ([2]; Rattus norvegicus, po) | percent inhibition of antibody production [3]
1 | CC(C(=O)O)c1ccc(C[C@@H]2CCCC[C@H]2O)cc1 (mixture of isomers) [Compound 2, (±)-2-[4-(trans-2-hydroxycyclohexylmethyl)phenyl]propionic acid] | 0.96 mg/kg | 0.76 mg/kg |  |  | 
2 | COc1ccc2c(c1)c(CC(=O)O)c(C)n2C(=O)c1ccc(Cl)cc1 [Compound 3, Indomethacin, reference compound] |  |  | 2.2 mg/kg | 1.6 mg/kg | 
3 | CC(C(=O)O)c1ccc(C[C@@H]2CCCC[C@@H]2O)cc1 (mixture of isomers) [Compound 1, (±)-2-[4-(cis-2-hydroxycyclohexylmethyl)phenyl]propionic acid] | 3.3 mg/kg | 0.86 mg/kg |  |  | ≥ 50%

Reference: US4622421A, “Phenylalkanoic acid derivatives and their use” (Sankyo Company Limited, priority 1983, dated 1986)
